Key:
USP7-F291N = target: T1, USP7-F291N (Homo sapiens, UniProt Q93009, F291N); test: Ub-AMC enzymatic assay, USP7-F291N mutant; type: biochemical; settings: 6-hr pre-incubation
T1 construct: made in house

RPS19 = target: T2, RPS19 (Homo sapiens, UniProt P39019); test: XL177A-DTB chemoproteomic profiling with XL177A competition, RPS19; type: binding; settings: RPS19 reporter ion intensity
T2 construct: endogenous in cells; host or cells: HEK 293AD lysate
Experimental: HEK 293AD cells were lysed as described above, and the lysate was cleared by centrifugation. Samples were diluted to 10 mg/mL, and 200 μL lysate (2 mg protein total) was incubated with the indicated concentrations of XL177A for 4 hours at RT, then 2 μM of WH114A for 4 additional hours. SDS was added to a final concentration of 1.2% (27.2 μL of a 10% stock), and denatured by heating to 80 °C for 5 minutes. After cooling to RT, 1125 μL 1X PBS was added to dilute the final SDS concentration to 0.2%. 50 μL streptavidin agarose slurry was added to each sample, followed by incubation at RT for 3 hours. After streptavidin enrichment, samples were washed vigorously (2×0.2% SDS, 3x PBS, 3x ddH2O). After the final wash, all supernatant was removed using a flat-bottom tip, and the resin was flash frozen and stored at −80 °C until workup for TMT labeling.
To remove rapigest, recovered supernatants were acidified with 10% TFA, incubated at 37 °C for 45 minutes, and centrifuged at 14,000 rpm for 15 minutes at 4 °C. Peptides were then desalted by C18, and dried by vacuum centrifugation. Dried peptides were reconstituted in 50 mM pH8.0 TEAB and labeled with TMT reagent at RT for 1 hour. TMT reactions were pooled and treated with hydroxylamine according to the manufacturer’s instructions. Peptide mixtures were then dried, reconstituted in 50 mM ammonium bicarbonate and desalted by SP3[53]. Eluted peptides were then analyzed by nanoflow LC-MS/MS as described[64] with a NanoAcquity UPLC system (Waters, Milford, MA) interfaced to a QExactive HF mass spectrometer (Thermofisher Scientific, San Jose, CA). TMT labeled peptides were injected onto a precolumn (4 cm POROS 10R2, Applied Biosystems, Framingham, MA), resolved on an analytical column (30 µm I.D. × 50 cm packed with 5 µm Monitor C18) and introduced to the mass spectrometer by ESI (spray voltage = 3.5 kV, flow rate ~30 nL/min). The mass spectrometer was operated in data dependent mode such that the 15 most abundant ions in each MS scan (m/z 300–2000, 120 K resolution, target = 3E6, lock mass for 445.120025 enabled) were subjected to MS/MS (m/z 100–2000, 30 K resolution, target = 1E5, max fill time = 100 ms). Dynamic exclusion was selected with a repeat count of 1 and an exclusion time of 30 seconds. MS/MS data was extracted to.mgf using mulitplierz scripts[54],[55] and searched against a forward-reverse human NCBI refseq database using Mascot version 2.6. Search parameters specified fixed carbamidomethylation of cysteine, fixed N-terminal and lysine TMT labelling, and variable oxidation (methionine). Additional multiplierz scripts were used to filter results to 1% FDR and derive protein-level aggregate reporter ion intensities using peptides mapping uniquely into the genome.

USP7 = USP7 (Homo sapiens, UniProt Q93009); test: Live cell treatment and competitive ABPP with HA-Ub-VS; type: cell-based; design: endogenous in cells; host or cells: MCF7; settings: live cell treatment, 6 hr; read-out: IC50, USP7 inhibition in cyto
Sequence of USP7 (Q93009 whole entry): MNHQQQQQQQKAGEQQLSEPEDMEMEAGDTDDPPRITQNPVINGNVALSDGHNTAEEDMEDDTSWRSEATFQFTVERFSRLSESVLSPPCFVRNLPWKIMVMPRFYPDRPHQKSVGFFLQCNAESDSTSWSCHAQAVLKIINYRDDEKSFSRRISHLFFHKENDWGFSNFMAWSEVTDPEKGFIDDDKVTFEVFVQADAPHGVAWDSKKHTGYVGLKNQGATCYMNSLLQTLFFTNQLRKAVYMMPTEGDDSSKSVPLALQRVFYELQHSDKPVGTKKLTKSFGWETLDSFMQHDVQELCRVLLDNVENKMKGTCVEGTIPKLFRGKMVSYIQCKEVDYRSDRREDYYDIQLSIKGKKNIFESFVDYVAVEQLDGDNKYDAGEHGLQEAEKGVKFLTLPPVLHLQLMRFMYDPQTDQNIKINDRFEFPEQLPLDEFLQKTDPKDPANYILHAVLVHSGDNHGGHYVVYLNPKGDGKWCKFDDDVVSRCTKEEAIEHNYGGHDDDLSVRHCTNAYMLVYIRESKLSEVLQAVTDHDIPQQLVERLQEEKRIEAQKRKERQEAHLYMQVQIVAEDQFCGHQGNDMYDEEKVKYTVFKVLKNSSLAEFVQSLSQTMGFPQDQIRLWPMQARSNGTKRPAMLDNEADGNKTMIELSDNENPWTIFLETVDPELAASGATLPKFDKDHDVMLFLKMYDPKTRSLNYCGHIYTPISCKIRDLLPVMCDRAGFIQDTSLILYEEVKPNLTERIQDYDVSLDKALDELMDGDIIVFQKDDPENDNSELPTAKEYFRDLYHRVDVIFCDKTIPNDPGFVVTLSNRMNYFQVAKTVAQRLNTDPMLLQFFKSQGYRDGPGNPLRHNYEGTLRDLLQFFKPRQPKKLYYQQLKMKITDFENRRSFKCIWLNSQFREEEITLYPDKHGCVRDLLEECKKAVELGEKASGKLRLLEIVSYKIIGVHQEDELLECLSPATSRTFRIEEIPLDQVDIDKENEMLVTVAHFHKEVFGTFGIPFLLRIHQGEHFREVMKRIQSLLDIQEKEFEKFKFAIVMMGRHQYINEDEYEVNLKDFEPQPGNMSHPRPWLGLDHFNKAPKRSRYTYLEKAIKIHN
Experimental: HA-Ub-VS experiments were performed as previously described in Lamberto et al[29]. Briefly, target engagement lysis buffer (50 mM Tris pH 8.0, 150 mM NaCl, 5 mM MgCl2, 0.5 mM EDTA, 0.5% NP-40, 10% glycerol, 1 mM TCEP, protease and phosphatase inhibitors) was added to cell pellets on ice. Lysate was cleared by centrifugation and diluted to 1.67 mg/mL. Where indicated, 30 μL lysate was then incubated with inhibitors or DMSO for the indicated timepoints. 1 μM HA-Ub-VS was then added to the lysate and incubated at RT for the indicated time points. Labeling reactions were quenched with 4x LDS sample buffer (Thermo Fisher B0007) supplemented with 10% BME, vortexed vigorously, and heated to 95 C for 5 minutes. Samples were resolved by SDS-PAGE and analyzed by Western blot with the indicated antibodies.

[1] = XL177A-DTB pulldown, HEK293AD lysate pre-treated 100nM XL177A
[2] = XL177A-DTB pulldown, HEK293AD lysate pre-treated 1uM XL177A
[3] = XL177A-DTB pulldown, HEK293AD lysate pre-treated 10uM XL177A
[4] = average of Run 1 and Run 2, 100nM XL177A
[5] = average of Run 1 and Run 2, 1uM XL177A
[6] = average of Run 1 and Run 2, 10uM XL177A

T1 sequence (Q93009 whole entry F291N): as the sequence (Q93009 whole entry) above, with F291N counted along it

IC50 (USP7-F291N): 629 nM
Run 1 100nM 1 (RPS19; [1]): 201720
Run 1 100nM 2 (RPS19; [1]): 193904
Run 1 100nM 3 (RPS19; [1]): 198261
Run 2 100nM 1 (RPS19; [1]): 185482
Run 2 100nM 2 (RPS19; [1]): 186116
Run 2 100nM 3 (RPS19; [1]): 181339
Run 1 1uM 1 (RPS19; [2]): 206285
Run 1 1uM 2 (RPS19; [2]): 969196
Run 1 1uM 3 (RPS19; [2]): 327663
Run 2 1uM 1 (RPS19; [2]): 160877
Run 2 1uM 2 (RPS19; [2]): 741636
Run 2 1uM 3 (RPS19; [2]): 244076
Run 1 10uM 1 (RPS19; [3]): 152789
Run 1 10uM 2 (RPS19; [3]): 213160
Run 2 10uM 1 (RPS19; [3]): 210280
Run 2 10uM 2 (RPS19; [3]): 197443
AVE 100nM 1 (RPS19; [4]): 193601
AVE 100nM 2 (RPS19; [4]): 190010
AVE 100nM 3 (RPS19; [4]): 189800
AVE 1uM 1 (RPS19; [5]): 183581
AVE 1uM 2 (RPS19; [5]): 855416
AVE 1uM 3 (RPS19; [5]): 285870
AVE 10uM 1 (RPS19; [6]): 181534
AVE 10uM 2 (RPS19; [6]): 205302
IC50 (USP7): 39 nM
Structure (SMILES): CN1CCN(CCC(=O)Nc2ccc3c(=O)n(CC4(O)CCN(C(=O)[C@@H](CCCNC(=O)c5ccc6c(Cl)c7c(nc6c5)CCCC7)Cc5ccccc5)CC4)cnc3c2)CC1 [XL177A]

From paper PMC7093416, “Selective USP7 inhibition elicits cancer cell killing through a p53-dependent mechanism” (Scientific Reports, 2020)
